Results from US20240287028A1, “HERBICIDAL PHENYLURACILS” (BASF SE, priority 2021, published 2024).

Assays:
Test in all cases: greenhouse herbicidal test, post-emergence treatment
Type in all cases: in vivo
[1] = test system: Digitaria insularis; details: scale 0 to 100
Description: (§1) The culture containers used were plastic flowerpots containing loamy sand with approximately 3.0% of humus as the substrate. The seeds of the test plants were sown separately for each species.
(§2) For the pre-emergence treatment, the active ingredients, which had been suspended or emulsified in water, were applied directly after sowing by means of finely distributing nozzles. The containers were irrigated gently to promote germination and growth and subsequently covered with transparent plastic hoods until the test plants had rooted. This cover caused uniform germination of the test plants, unless this had been impaired by the active ingredients. For the post-emergence treatment, the test plants were first grown to a height of 3 to 15 cm, depending on the plant habit, and only then treated with the active ingredients which had been suspended or emulsified in water. For this purpose, the test plants were either sown directly and grown in the same containers, or they were first grown separately as seedlings and transplanted into the test containers a few days prior to treatment.
(§3) Depending on the species, the test plants were kept at 10-25° C. or 20-35° C., respectively. The test period extended over 2 to 3 weeks. During this time, the test plants were tended, and their response to the individual treatments was evaluated.
(§4) Evaluation was carried out using a scale from 0 to 100. 100 means no emergence of the test plants, or complete destruction of at least the aerial moieties, and 0 means no damage, or normal course of growth. A good herbicidal activity is given at values of at least 70 and a very good herbicidal activity is given at values of at least 85.

[2] = test system: Erigeron canadensis; details: application rate 4 g/ha, scale 0 to 100
Description: as §1, §2, §3, §4

[3] = test system: Setaria faberi; details: scale 0 to 100
Description: as §1, §2, §3, §4

SMILES	damages, unwanted plants TRCIN ([1]; application rate 2 g/ha)	damages, unwanted plants TRCIN ([1]; application rate 4 g/ha)	damages, unwanted plants ERICA [2]	damages, unwanted plants SETFA ([3]; application rate 1 g/ha)	damages, unwanted plants SETFA ([3]; application rate 2 g/ha)	damages, unwanted plants SETFA ([3]; application rate 4 g/ha)
CCOC(=O)COc1ncccc1Oc1cc(-n2c(=O)cc(C(F)(F)F)n(C)c2=O)c(F)cc1Cl [cmpd I-2-8]	90	90	65	70	85	90
CCOC(=O)COc1ncccc1Oc1cc(-n2c(=O)cc(C(C)(F)F)n(C)c2=O)c(F)cc1Cl [Example 1.1, Ethyl 2-[[3-[2-chloro-5-[4-(1,1-difluoroethyl)-3-methyl-2,6-dioxo-pyrimidin-1-yl]-4-fluoro-phenoxy]-2-pyridyl]oxy]acetate]	95	100	100	80	90	95
